These molecules were tested on alternansucrase (assay: Comparison of acceptor strengths with alternansucrase, relative amount of alternan formed). Conditions: 45 μL 10% (w/v) sucrose, 45 μL 10% (w/v) acceptor, 10 μL alternansucrase, pH 5.4, room temperature; less alternan = stronger acceptor.

Going from `OC[C@H]1O[C@H](O[C@@H]2COC(O)(CO)[C@@H](O)[C@@H]2O)[C@H](O)[C@@H](O)[C@@H]1O` (stereo partly drawn) [leucrose] to `O=C[C@H](O)[C@@H](O)[C@H](O[C@@H]1O[C@H](CO)[C@@H](O)[C@H](O)[C@H]1O)[C@H](O)CO` [cellobiose], the “Alternan (Rel. %)” value falls from 81 Rel. % to 72 Rel. %.

Going from `O=C[C@@H](O)[C@H](O)[C@H](O)[C@H](O)CO` [D-altrose] to `O=CC[C@@H](O)[C@H](O)[C@H](O)CO` [2-deoxy-D-glucose], the “Alternan (Rel. %)” value falls from 92 Rel. % to 59 Rel. %.

Compared with `CO[C@@H]1O[C@H](CO)[C@@H](O)[C@H](O)[C@@H]1O` [β-methyl-D-mannoside], `CC(=O)N[C@@H]1C(O)O[C@H](CO)[C@@H](O)[C@@H]1O` (stereo partly drawn) [N-acetyl-D-mannosamine] is higher in “Alternan (Rel. %)” value: 89 Rel. % for the first, 93 Rel. % for the second.

Going from `CC(=O)N[C@H]1C(O)O[C@H](CO)[C@H](O)[C@@H]1O` (stereo partly drawn) [N-acetyl-D-galactosamine] to `OC[C@H]1O[C@H](O[C@H]2[C@@H](O[C@H]3C(O)O[C@H](CO)[C@@H](O)[C@@H]3O)O[C@H](CO)[C@@H](O)[C@@H]2O)[C@H](O)[C@@H](O)[C@@H]1O` (stereo partly drawn) [kojitriose], the “Alternan (Rel. %)” value falls from 88 Rel. % to 86 Rel. %.

Compared with `COC1OCC(O)C(O)C1O` [β-methyl-D-xyloside], `O=C[C@H](O)[C@@H](O[C@H]1O[C@H](CO)[C@@H](O)[C@H](O)[C@H]1O)[C@H](O)[C@H](O)CO[C@H]1O[C@H](CO)[C@@H](O)[C@H](O)[C@H]1O` [3′-O-α-D-Glc isomaltose, 3-O-α-D-glucopyranosyl-6-O-α-D-glucopyranosyl-D-glucose] is lower in “Alternan (Rel. %)” value: 96 Rel. % for the first, 31 Rel. % for the second.

Going from `OC[C@H]1O[C@H](O[C@H]2[C@H](O)[C@@H](CO)OC(O)[C@@H]2O)[C@H](O)[C@@H](O)[C@@H]1O` (stereo partly drawn) [nigerose] to `O=C[C@H](O)[C@@H](O)[C@@H](O)[C@H](O)CO` [D-galactose], the “Alternan (Rel. %)” value rises from 23 Rel. % to 83 Rel. %.

`C[C@H](O)[C@@H](O)[C@@H](O)[C@H](O)C=O` [L-fucose] and `CO[C@@H]1O[C@H](CO)[C@H](O)[C@H](O)[C@H]1O` [β-methyl-D-galactoside, β-methyl-D-galactopyranoside] are the same in “Alternan (Rel. %)” value: 94 Rel. % for the first, 94 Rel. % for the second.

First: O=C[C@@H](O)[C@@H](O)[C@H](O)[C@H](O)CO [D-mannose]
Second: O=C(CO)[C@@H](O)[C@H](O)[C@H](O)CO [D-fructose]
The “Alternan (Rel. %)” value of the first is higher: 90 Rel. % for the first, 78 Rel. % for the second.

Going from `O=C(CO)[C@H](O)[C@@H](O)[C@H](O)CO` [D-sorbose] to `OC[C@H]1O[C@@H]2OC[C@H]3O[C@H](O[C@@H]4[C@@H](O)[C@@H](OC[C@H]5O[C@H](O[C@H]([C@H]2O)[C@@H]1O)[C@H](O)[C@@H](O)[C@@H]5O)O[C@H](CO)[C@H]4O)[C@H](O)[C@@H](O)[C@@H]3O` [cycloGlc4 (cyclo-alternan), cycloalternan], the “Alternan (Rel. %)” value falls from 97 Rel. % to 90 Rel. %.

Compared with `OC[C@H]1O[C@@H](O[C@H]2[C@H](O)[C@@H](O)C(O)O[C@@H]2CO)[C@H](O)[C@@H](O)[C@H]1O` (stereo partly drawn) [lactose], `OC[C@H]1O[C@H](OC[C@H]2O[C@H](O[C@H]3[C@H](O)[C@@H](O)C(O)O[C@@H]3CO)[C@H](O)[C@@H](O)[C@@H]2O)[C@H](O)[C@@H](O)[C@@H]1O` (stereo partly drawn) [panose] is lower in “Alternan (Rel. %)” value: 79 Rel. % for the first, 25 Rel. % for the second.

Compared with `O=C(CO)[C@H](O)[C@H](O)[C@H](O)CO` [D-psicose], `O=C[C@H](O)[C@H](O)[C@@H](O)CO` [L-lyxose] is higher in “Alternan (Rel. %)” value: 85 Rel. % for the first, 92 Rel. % for the second.

Going from `CO[C@H]1O[C@H](CO)[C@H](O)[C@H](O)[C@H]1O` [α-methyl-D-galactoside, α-methyl-D-galactopyranoside] to `C[C@@H](O)[C@@H](O)[C@H](O)[C@@H](O)C=O` [D-quinovose], the “Alternan (Rel. %)” value falls from 73 Rel. % to 61 Rel. %.

Compared with `OC[C@H]1O[C@H](O[C@H]2O[C@H](CO)[C@@H](O)[C@H](O)[C@H]2O)[C@H](O)[C@@H](O)[C@@H]1O` [α,α-trehalose], `O=C(CO)[C@@H](O)[C@H](O)[C@@H](O)CO` [L-sorbose] is lower in “Alternan (Rel. %)” value: 102 Rel. % for the first, 88 Rel. % for the second.

First: O=CC[C@H](O)[C@H](O)CO [2-deoxy-D-ribose]
Second: CCCCCCCCO[C@@H]1O[C@H](CO)[C@@H](O)[C@H](O)[C@H]1O [β-octyl D-glucoside, β-octyl-D-glucopyranoside]
The “Alternan (Rel. %)” value of the first is higher: 81 Rel. % for the first, 52 Rel. % for the second.

Compared with `O=C[C@@H](O)[C@H](O)[C@H](O)CO` [D-arabinose], `OC[C@@H](O)[C@@H](O)[C@H](O)[C@H](O)CO` [mannitol] is higher in “Alternan (Rel. %)” value: 99 Rel. % for the first, 100 Rel. % for the second.

Compared with `OC[C@@H](O)[C@@H](O[C@H]1O[C@H](CO)[C@@H](O)[C@H](O)[C@H]1O)[C@H](O)[C@@H](O)CO` [maltitol], `O=C[C@H](O)[C@@H](O)[C@@H](O)CO` [L-arabinose] is higher in “Alternan (Rel. %)” value: 18 Rel. % for the first, 75 Rel. % for the second.

Going from `OC[C@H]1O[C@H](OC[C@H]2O[C@H](OC[C@H]3O[C@H](O[C@]4(CO)O[C@H](CO)[C@@H](O)[C@@H]4O)[C@H](O)[C@@H](O)[C@@H]3O)[C@H](O)[C@@H](O)[C@H]2O)[C@H](O)[C@@H](O)[C@H]1O` [stachyose] to `CCCCCCCCCCCCO[C@@H]1O[C@H](CO)[C@@H](O[C@H]2O[C@H](CO)[C@@H](O)[C@H](O)[C@H]2O)[C@H](O)[C@H]1O` [β-dodecyl maltoside], the “Alternan (Rel. %)” value falls from 89 Rel. % to 83 Rel. %.

Compared with `O=C[C@@H](O)[C@@H](O)[C@@H](O)[C@H](O)CO` [D-talose], `O[C@H]1[C@H](O)[C@@H](O)[C@H](O)[C@@H](O)[C@H]1O` [myo-inositol] is higher in “Alternan (Rel. %)” value: 77 Rel. % for the first, 99 Rel. % for the second.

First: O=CC[C@@H](O)[C@@H](O)[C@H](O)CO [2-deoxy-D-galactose]
Second: OC[C@H]1O[C@H](OC[C@H]2OC(O)[C@H](O)[C@@H](O)[C@@H]2O)[C@H](O)[C@@H](O)[C@@H]1O (stereo partly drawn) [isomaltose]
The “Alternan (Rel. %)” value of the first is higher: 89 Rel. % for the first, 44 Rel. % for the second.

Compared with `OC[C@@H](O)[C@H](O)[C@H](O)[C@@H](O)CO` [dulcitol], `O=C[C@@H](O)[C@H](O[C@@H]1O[C@H](CO)[C@H](O)[C@H](O)[C@H]1O)[C@H](O)CO` [galactosyl-arabinose, 3-O-β-D-galactopyranosyl-D-arabinose] is lower in “Alternan (Rel. %)” value: 101 Rel. % for the first, 90 Rel. % for the second.

Going from `O=C[C@@H](O)[C@H](O)[C@@H](O)[C@@H](O)CO` [L-glucose] to `C[C@H](O)[C@H](O)[C@@H](O)[C@@H](O)C=O` [L-rhamnose], the “Alternan (Rel. %)” value rises from 63 Rel. % to 96 Rel. %.

First: OC[C@H]1O[C@H](OC[C@H]2O[C@H](O[C@H]3O[C@H](CO)[C@@H](O)[C@H](O)[C@H]3O)[C@H](O)[C@@H](O)[C@@H]2O)[C@H](O)[C@@H](O)[C@@H]1O [6-O-α-D-Glc-trehalose, 6-O-α-D-glucopyranosyl-α,α-trehalose]
Second: OC[C@H]1O[C@@](CO)(O[C@H]2O[C@H](CO[C@@H]3O[C@H](CO)[C@@H](O)[C@H](O)[C@H]3O)[C@@H](O)[C@H](O)[C@H]2O)[C@@H](O)[C@@H]1O [gentianose]
The “Alternan (Rel. %)” value of the first is lower: 56 Rel. % for the first, 66 Rel. % for the second.

Compared with `CO[C@@H]1O[C@H](CO)[C@@H](O)[C@H](O)[C@H]1O` [β-methyl-D-glucoside], `OC[C@H]1O[C@@](CO)(O[C@H]2O[C@H](CO[C@H]3O[C@H](CO)[C@@H](O)[C@H](O)[C@H]3O)[C@@H](O)[C@H](O)[C@H]2O)[C@@H](O)[C@@H]1O` [theanderose] is lower in “Alternan (Rel. %)” value: 60 Rel. % for the first, 42 Rel. % for the second.

First: OC[C@H]1O[C@@H](O[C@H]2[C@H](O)[C@@H](CO)OC(O)[C@@H]2O)[C@H](O)[C@@H](O)[C@@H]1O (stereo partly drawn) [laminaribiose]
Second: O=C(CO)[C@@H](O)[C@@H](O)[C@H](O)CO [D-tagatose]
The “Alternan (Rel. %)” value of the first is lower: 58 Rel. % for the first, 65 Rel. % for the second.

Going from `OC[C@H]1O[C@H](OC[C@H]2O[C@@](CO)(O[C@H]3O[C@H](CO)[C@@H](O)[C@H](O)[C@H]3O)[C@@H](O)[C@@H]2O)[C@H](O)[C@@H](O)[C@H]1O` [planteose] to gentiobiose, the “Alternan (Rel. %)” value falls from 76 Rel. % to 25 Rel. %.

Going from `OC[C@H]1O[C@H](O[C@H]2C(O)O[C@H](CO)[C@@H](O)[C@@H]2O)[C@H](O)[C@@H](O)[C@@H]1O` (stereo partly drawn) [kojibiose] to `O=C[C@@H](O)[C@@H](O)[C@H](O)CO` [D-lyxose], the “Alternan (Rel. %)” value rises from 27 Rel. % to 99 Rel. %.

Going from `OC[C@@H](O)[C@H](O)[C@@H](O)CO` [xylitol] to `OC[C@H]1O[C@H](OC[C@H]2O[C@H](O[C@H]3O[C@H](CO[C@H]4O[C@H](CO)[C@@H](O)[C@H](O)[C@H]4O)[C@@H](O)[C@H](O)[C@H]3O)[C@H](O)[C@@H](O)[C@@H]2O)[C@H](O)[C@@H](O)[C@@H]1O` [6,6′-di-O-α-D-Glc-trehalose, 6,6′-di-O-α-D-glucopyranosyl-α,α-trehalose], the “Alternan (Rel. %)” value falls from 97 Rel. % to 54 Rel. %.

First: OC[C@@H](O)[C@@H](O)[C@H](O)[C@@H](O)CO [sorbitol]
Second: O=C[C@H](O)[C@@H](O)[C@H](O)CO [D-xylose]
The “Alternan (Rel. %)” value of the first is lower: 82 Rel. % for the first, 86 Rel. % for the second.

Going from `OC[C@H]1O[C@H](OCC2O[C@@H](O)[C@H](O)[C@@H](O)[C@@H]2O)[C@H](O)[C@@H](O)[C@H]1O` (stereo partly drawn) [melibiose] to `CC(=O)N[C@H]1C(O)O[C@H](CO)[C@@H](O)[C@@H]1O` (stereo partly drawn) [N-acetyl-D-glucosamine], the “Alternan (Rel. %)” value rises from 45 Rel. % to 90 Rel. %.

`CO[C@H]1O[C@H](CO)[C@@H](O)[C@H](O)[C@H]1O` [α-methyl-D-glucoside, α-methyl-D-glucopyranoside] was tested, and the “Alternan (Rel. %)” value was 20 Rel. %.

Same assay, conditions: acceptor added at the same initial level as other disaccharides

`OC[C@H]1O[C@H](O[C@@H]2COC(O)(CO)[C@@H](O)[C@@H]2O)[C@H](O)[C@@H](O)[C@@H]1O` (stereo partly drawn) [leucrose] was tested, and the “reduction in the amount of alternan formed” value was 19%.

Same assay, conditions: text summary of Table I

In the case of `OC[C@H]1O[C@H](O[C@H]2O[C@H](CO)[C@@H](O)[C@H](O)[C@H]2O)[C@H](O)[C@@H](O)[C@@H]1O` [α,α-trehalose], the “acceptor strength for alternansucrase, in words” value (“acceptor strength” for short) is reported as “not an acceptor”.
`OC[C@@H](O)[C@@H](O[C@H]1O[C@H](CO)[C@@H](O)[C@H](O)[C@H]1O)[C@H](O)[C@@H](O)CO` [maltitol] was tested, and the “acceptor strength” value was “excellent acceptor”.
For `OC[C@H]1O[C@H](OC[C@H]2O[C@H](O[C@H]3O[C@H](CO)[C@@H](O)[C@H](O)[C@H]3O)[C@H](O)[C@@H](O)[C@@H]2O)[C@H](O)[C@@H](O)[C@@H]1O` [6-O-α-D-Glc-trehalose, 6-O-α-D-glucopyranosyl-α,α-trehalose], the “acceptor strength” value was “relatively good acceptors”.
With gentiobiose the “acceptor strength” value was “surprisingly good acceptor”.
In the case of `OC[C@H]1O[C@H](OC[C@H]2O[C@H](O[C@H]3O[C@H](CO[C@H]4O[C@H](CO)[C@@H](O)[C@H](O)[C@H]4O)[C@@H](O)[C@H](O)[C@H]3O)[C@H](O)[C@@H](O)[C@@H]2O)[C@H](O)[C@@H](O)[C@@H]1O` [6,6′-di-O-α-D-Glc-trehalose, 6,6′-di-O-α-D-glucopyranosyl-α,α-trehalose], the “acceptor strength” value is reported as “relatively good acceptors”.
In the case of `OC[C@H]1O[C@H](OCC2O[C@@H](O)[C@H](O)[C@@H](O)[C@@H]2O)[C@H](O)[C@@H](O)[C@H]1O` (stereo partly drawn) [melibiose], the “acceptor strength” value is reported as “relatively good acceptors”.

— US7182954B1, “Prebiotic oligosaccharides via alternansucrase acceptor reactions” (priority 2003, dated 2007)
